Measured values reported in PubChem BioAssay (NCI).
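Assay format: 96-well plates, 48-hour exposure. GI50 = concentration required for 50% inhibition of growth. Definition used: TGI = concentration required for complete inhibition of growth.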

How the values were obtained:
Experiment in all cases: NCI-60 cell line screen, 48 h
HCT-15 colon = tested on: HCT-15 colon
LOX IMVI melanoma = tested on: LOX IMVI melanoma
SW-620 colon = tested on: SW-620 colon
HCT-116 colon = tested on: HCT-116 colon
MALME-3M melanoma = tested on: MALME-3M melanoma
HOP-62 NSCLC = tested on: HOP-62 NSCLC
OVCAR-4 ovarian = tested on: OVCAR-4 ovarian
HOP-92 NSCLC = tested on: HOP-92 NSCLC
HL-60(TB) leukemia = tested on: HL-60(TB) leukemia
HCC-2998 colon = tested on: HCC-2998 colon
MDA-MB-468 breast = tested on: MDA-MB-468 breast
T-47D breast = tested on: T-47D breast
SR leukemia = tested on: SR leukemia
M14 melanoma = tested on: M14 melanoma
A549 NSCLC = tested on: A549 NSCLC
PC-3 prostate = tested on: PC-3 prostate
NCI-H23 lung = tested on: NCI-H23 lung
CCRF-CEM leukemia = tested on: CCRF-CEM leukemia
MDA-MB-435 = tested on: MDA-MB-435
SF-295 CNS = tested on: SF-295 CNS
SK-MEL-28 melanoma = tested on: SK-MEL-28 melanoma
HS 578T breast = tested on: HS 578T breast
IGROV1 ovarian = tested on: IGROV1 ovarian
ACHN renal = tested on: ACHN renal
NCI-H522 lung = tested on: NCI-H522 lung
NCI/ADR-RES ovarian = tested on: NCI/ADR-RES ovarian
UACC-62 melanoma = tested on: UACC-62 melanoma
SNB-19 CNS = tested on: SNB-19 CNS
UACC-257 melanoma = tested on: UACC-257 melanoma
SK-OV-3 ovarian = tested on: SK-OV-3 ovarian
786-0 renal = tested on: 786-0 renal
MOLT-4 leukemia = tested on: MOLT-4 leukemia
TK-10 renal = tested on: TK-10 renal
NCI-H460 lung = tested on: NCI-H460 lung
OVCAR-3 ovarian = tested on: OVCAR-3 ovarian
SF-268 CNS = tested on: SF-268 CNS
COLO 205 colon = tested on: COLO 205 colon
A498 renal = tested on: A498 renal
U251 CNS = tested on: U251 CNS
K-562 leukemia = tested on: K-562 leukemia
BT-549 breast = tested on: BT-549 breast
KM12 colon = tested on: KM12 colon
OVCAR-8 ovarian = tested on: OVCAR-8 ovarian
HT29 colon = tested on: HT29 colon
RPMI-8226 leukemia = tested on: RPMI-8226 leukemia
RXF 393 renal = tested on: RXF 393 renal
OVCAR-5 ovarian = tested on: OVCAR-5 ovarian
CAKI-1 renal = tested on: CAKI-1 renal
MCF7 breast = tested on: MCF7 breast
SK-MEL-5 melanoma = tested on: SK-MEL-5 melanoma
DU-145 prostate = tested on: DU-145 prostate
EKVX NSCLC = tested on: EKVX NSCLC
SF-539 CNS = tested on: SF-539 CNS
SN12C renal = tested on: SN12C renal
NCI-H226 lung = tested on: NCI-H226 lung

Q: Which results are given for N#Cc1c(-c2ccc(F)cc2)nc(SCc2ccc(F)cc2)nc1N1CCNCC1?
A: GI50 (HCT-15 colon): 11.7 µM; TGI (HCT-15 colon): 24.6 µM; GI50 (LOX IMVI melanoma): 2.28 µM; TGI (LOX IMVI melanoma): 5.69 µM; GI50 (SW-620 colon): 5.97 µM; TGI (SW-620 colon): 19.2 µM; GI50 (HCT-116 colon): 4.15 µM; TGI (HCT-116 colon): 15.6 µM; GI50 (MALME-3M melanoma): 14.7 µM; TGI (MALME-3M melanoma): 28.4 µM; GI50 (HOP-62 NSCLC): 17 µM; TGI (HOP-62 NSCLC): 33.4 µM; GI50 (OVCAR-4 ovarian): 16.5 µM; TGI (OVCAR-4 ovarian): 33.6 µM; GI50 (HOP-92 NSCLC): 7.64 µM; TGI (HOP-92 NSCLC): 22.1 µM; GI50 (HL-60(TB) leukemia): 7.66 µM; TGI (HL-60(TB) leukemia): 24 µM; GI50 (HCC-2998 colon): 2.53 µM; TGI (HCC-2998 colon): 6.27 µM; GI50 (MDA-MB-468 breast): 12.4 µM; TGI (MDA-MB-468 breast): 26.2 µM; GI50 (T-47D breast): 13.8 µM; TGI (T-47D breast): 30.4 µM; GI50 (SR leukemia): 2.18 µM; TGI (SR leukemia): 5.07 µM; GI50 (M14 melanoma): 13.6 µM; TGI (M14 melanoma): 26.8 µM; GI50 (A549 NSCLC): 11.5 µM; TGI (A549 NSCLC): 25 µM; GI50 (PC-3 prostate): 12.5 µM; TGI (PC-3 prostate): 27.7 µM; GI50 (NCI-H23 lung): 16 µM; TGI (NCI-H23 lung): 30.4 µM; GI50 (CCRF-CEM leukemia): 14.8 µM; TGI (CCRF-CEM leukemia): 33.6 µM; GI50 (MDA-MB-435): 16.8 µM; TGI (MDA-MB-435): 31.3 µM; GI50 (SF-295 CNS): 16.6 µM; TGI (SF-295 CNS): 30.9 µM; GI50 (SK-MEL-28 melanoma): 16.4 µM; TGI (SK-MEL-28 melanoma): 30.2 µM; GI50 (HS 578T breast): 15.6 µM; TGI (HS 578T breast): 34.6 µM; GI50 (IGROV1 ovarian): 15.6 µM; TGI (IGROV1 ovarian): 29.8 µM; GI50 (ACHN renal): 15 µM; TGI (ACHN renal): 28.5 µM; GI50 (NCI-H522 lung): 13.9 µM; TGI (NCI-H522 lung): 29.9 µM; GI50 (NCI/ADR-RES ovarian): 13.7 µM; TGI (NCI/ADR-RES ovarian): 30.4 µM; GI50 (UACC-62 melanoma): 15.9 µM; TGI (UACC-62 melanoma): 29.9 µM; GI50 (SNB-19 CNS): 14.9 µM; TGI (SNB-19 CNS): 29.4 µM; GI50 (UACC-257 melanoma): 14.8 µM; TGI (UACC-257 melanoma): 28.7 µM; GI50 (SK-OV-3 ovarian): 16 µM; TGI (SK-OV-3 ovarian): 29.8 µM; GI50 (786-0 renal): 13.8 µM; TGI (786-0 renal): 29.3 µM; GI50 (MOLT-4 leukemia): 10.5 µM; TGI (MOLT-4 leukemia): 26 µM; GI50 (TK-10 renal): 15 µM; TGI (TK-10 renal): 29.7 µM; GI50 (NCI-H460 lung): 14.3 µM; TGI (NCI-H460 lung): 29.4 µM; GI50 (OVCAR-3 ovarian): 15.5 µM; TGI (OVCAR-3 ovarian): 30.8 µM; GI50 (SF-268 CNS): 14.1 µM; TGI (SF-268 CNS): 30.9 µM; GI50 (COLO 205 colon): 1.83 µM; TGI (COLO 205 colon): 3.4 µM; GI50 (A498 renal): 15.3 µM; TGI (A498 renal): 29.8 µM; GI50 (U251 CNS): 10.3 µM; TGI (U251 CNS): 24.7 µM; GI50 (K-562 leukemia): 3.76 µM; TGI (K-562 leukemia): 17.8 µM; GI50 (BT-549 breast): 10.7 µM; TGI (BT-549 breast): 23 µM; GI50 (KM12 colon): 18 µM; TGI (KM12 colon): 33.6 µM; GI50 (OVCAR-8 ovarian): 13.2 µM; TGI (OVCAR-8 ovarian): 30.5 µM; GI50 (HT29 colon): 4.87 µM; TGI (HT29 colon): 17.3 µM; GI50 (RPMI-8226 leukemia): 6.75 µM; TGI (RPMI-8226 leukemia): 24.6 µM; GI50 (RXF 393 renal): 7.3 µM; TGI (RXF 393 renal): 21.4 µM; GI50 (OVCAR-5 ovarian): 14.5 µM; TGI (OVCAR-5 ovarian): 28 µM; GI50 (CAKI-1 renal): 15.3 µM; TGI (CAKI-1 renal): 29 µM; GI50 (MCF7 breast): 6.43 µM; TGI (MCF7 breast): 20.2 µM; GI50 (SK-MEL-5 melanoma): 16.8 µM; TGI (SK-MEL-5 melanoma): 30.5 µM; GI50 (DU-145 prostate): 16.8 µM; TGI (DU-145 prostate): 31.3 µM; GI50 (EKVX NSCLC): 13.1 µM; TGI (EKVX NSCLC): 26.4 µM; GI50 (SF-539 CNS): 15.6 µM; TGI (SF-539 CNS): 29 µM; GI50 (SN12C renal): 15.3 µM; TGI (SN12C renal): 29 µM; GI50 (NCI-H226 lung): 15.9 µM; TGI (NCI-H226 lung): 35.7 µM
